From PubChem BioAssay (NCI)
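Values below derive from 48-hour exposures of cells grown in 96-well plates, with endpoints linearly interpolated between the two concentrations bracketing the appropriate inhibition level. Abbreviation: GI50, concentration required for 50% inhibition of growth. TGI marks complete inhibition of growth.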

Tests used:
Assay in all cases: NCI-60 cell line screen, 48 h
SF-268 CNS = system: SF-268 CNS
OVCAR-4 ovarian = system: OVCAR-4 ovarian
EKVX NSCLC = system: EKVX NSCLC
U251 CNS = system: U251 CNS
LOX IMVI melanoma = system: LOX IMVI melanoma
PC-3 prostate = system: PC-3 prostate
HCC-2998 colon = system: HCC-2998 colon
SF-539 CNS = system: SF-539 CNS
HOP-62 NSCLC = system: HOP-62 NSCLC
SW-620 colon = system: SW-620 colon
OVCAR-5 ovarian = system: OVCAR-5 ovarian
MALME-3M melanoma = system: MALME-3M melanoma
IGROV1 ovarian = system: IGROV1 ovarian
786-0 renal = system: 786-0 renal
KM12 colon = system: KM12 colon
SK-MEL-2 melanoma = system: SK-MEL-2 melanoma
MOLT-4 leukemia = system: MOLT-4 leukemia
HL-60(TB) leukemia = system: HL-60(TB) leukemia
SK-MEL-5 melanoma = system: SK-MEL-5 melanoma
HCT-15 colon = system: HCT-15 colon
A498 renal = system: A498 renal
COLO 205 colon = system: COLO 205 colon
NCI/ADR-RES ovarian = system: NCI/ADR-RES ovarian
RPMI-8226 leukemia = system: RPMI-8226 leukemia
HOP-92 NSCLC = system: HOP-92 NSCLC
SNB-19 CNS = system: SNB-19 CNS
SF-295 CNS = system: SF-295 CNS
OVCAR-3 ovarian = system: OVCAR-3 ovarian
HCT-116 colon = system: HCT-116 colon
ACHN renal = system: ACHN renal
NCI-H460 lung = system: NCI-H460 lung
NCI-H23 lung = system: NCI-H23 lung
HS 578T breast = system: HS 578T breast
TK-10 renal = system: TK-10 renal
NCI-H226 lung = system: NCI-H226 lung
HT29 colon = system: HT29 colon
NCI-H522 lung = system: NCI-H522 lung
MCF7 breast = system: MCF7 breast
UACC-62 melanoma = system: UACC-62 melanoma
SNB-75 CNS = system: SNB-75 CNS
SN12C renal = system: SN12C renal
M14 melanoma = system: M14 melanoma
T-47D breast = system: T-47D breast
OVCAR-8 ovarian = system: OVCAR-8 ovarian
SK-OV-3 ovarian = system: SK-OV-3 ovarian
SK-MEL-28 melanoma = system: SK-MEL-28 melanoma
MDA-MB-468 breast = system: MDA-MB-468 breast
MDA-MB-435 = system: MDA-MB-435
K-562 leukemia = system: K-562 leukemia
A549 NSCLC = system: A549 NSCLC
UACC-257 melanoma = system: UACC-257 melanoma
CAKI-1 renal = system: CAKI-1 renal
RXF 393 renal = system: RXF 393 renal
BT-549 breast = system: BT-549 breast
DU-145 prostate = system: DU-145 prostate

O=C(N/N=C/c1ccc(-c2cccc([N+](=O)[O-])c2)o1)c1[nH]c2ccc(Br)cc2c1-c1ccccc1 was tested, and the GI50 (SF-268 CNS) was 5.55 µM, the TGI (SF-268 CNS) was > 100 µM and the GI50 (OVCAR-4 ovarian) was > 100 µM. The TGI (OVCAR-4 ovarian) was > 100 µM, the GI50 (EKVX NSCLC) was 5.74 µM and the TGI (EKVX NSCLC) was > 100 µM. For the same compound, the GI50 (U251 CNS) was 3.34 µM, the TGI (U251 CNS) was > 100 µM and the GI50 (LOX IMVI melanoma) was 3.71 µM. The TGI (LOX IMVI melanoma) was > 100 µM, the GI50 (PC-3 prostate) was 4.28 µM and the TGI (PC-3 prostate) was > 100 µM. The GI50 (HCC-2998 colon) was 4.63 µM, the TGI (HCC-2998 colon) was > 100 µM and the GI50 (SF-539 CNS) was 2.34 µM. The TGI (SF-539 CNS) was 5.81 µM, the GI50 (HOP-62 NSCLC) was 3.49 µM and the TGI (HOP-62 NSCLC) was > 100 µM. For the same compound, the GI50 (SW-620 colon) was 4.5 µM, the TGI (SW-620 colon) was > 100 µM and the GI50 (OVCAR-5 ovarian) was 3.84 µM. The TGI (OVCAR-5 ovarian) was > 100 µM, the GI50 (MALME-3M melanoma) was 3.77 µM and the TGI (MALME-3M melanoma) was > 100 µM. For the same compound, the GI50 (IGROV1 ovarian) was 4.33 µM, the TGI (IGROV1 ovarian) was > 100 µM and the GI50 (786-0 renal) was 2.75 µM. The TGI (786-0 renal) was 13.3 µM, the GI50 (KM12 colon) was 3.75 µM and the TGI (KM12 colon) was > 100 µM. For the same compound, the GI50 (SK-MEL-2 melanoma) was 2.68 µM, the TGI (SK-MEL-2 melanoma) was 8.93 µM and the GI50 (MOLT-4 leukemia) was 3.45 µM. The TGI (MOLT-4 leukemia) was > 100 µM, the GI50 (HL-60(TB) leukemia) was 1.94 µM and the TGI (HL-60(TB) leukemia) was 5.32 µM. It also gave a GI50 (SK-MEL-5 melanoma) of 2.22 µM, a TGI (SK-MEL-5 melanoma) of 5.34 µM and a GI50 (HCT-15 colon) of 3.59 µM. The TGI (HCT-15 colon) was > 100 µM, the GI50 (A498 renal) was > 100 µM and the TGI (A498 renal) was > 100 µM. It also gave a GI50 (COLO 205 colon) of 2.75 µM, a TGI (COLO 205 colon) of 7.49 µM and a GI50 (NCI/ADR-RES ovarian) of 2.53 µM. The TGI (NCI/ADR-RES ovarian) was 6.49 µM, the GI50 (RPMI-8226 leukemia) was 3.31 µM and the TGI (RPMI-8226 leukemia) was > 100 µM. For the same compound, the GI50 (HOP-92 NSCLC) was 46.1 µM, the TGI (HOP-92 NSCLC) was > 100 µM and the GI50 (SNB-19 CNS) was 3.48 µM. The TGI (SNB-19 CNS) was > 100 µM, the GI50 (SF-295 CNS) was 3.17 µM and the TGI (SF-295 CNS) was > 100 µM. For the same compound, the GI50 (OVCAR-3 ovarian) was 3.47 µM, the TGI (OVCAR-3 ovarian) was > 100 µM and the GI50 (HCT-116 colon) was 3.04 µM. The TGI (HCT-116 colon) was 10.4 µM, the GI50 (ACHN renal) was 4.76 µM and the TGI (ACHN renal) was > 100 µM. For the same compound, the GI50 (NCI-H460 lung) was 3.49 µM, the TGI (NCI-H460 lung) was > 100 µM and the GI50 (NCI-H23 lung) was 4.87 µM. The TGI (NCI-H23 lung) was > 100 µM, the GI50 (HS 578T breast) was 4.26 µM and the TGI (HS 578T breast) was > 100 µM. The GI50 (TK-10 renal) was > 100 µM, the TGI (TK-10 renal) was > 100 µM and the GI50 (NCI-H226 lung) was 23.5 µM. The TGI (NCI-H226 lung) was > 100 µM, the GI50 (HT29 colon) was 2.58 µM and the TGI (HT29 colon) was 6.97 µM. The GI50 (NCI-H522 lung) was 1.73 µM, the TGI (NCI-H522 lung) was 3.98 µM and the GI50 (MCF7 breast) was 3.56 µM. The TGI (MCF7 breast) was > 100 µM, the GI50 (UACC-62 melanoma) was 4.46 µM and the TGI (UACC-62 melanoma) was > 100 µM. The GI50 (SNB-75 CNS) was 4.56 µM, the TGI (SNB-75 CNS) was > 100 µM and the GI50 (SN12C renal) was 3.99 µM. The TGI (SN12C renal) was > 100 µM, the GI50 (M14 melanoma) was 3.43 µM and the TGI (M14 melanoma) was > 100 µM. The GI50 (T-47D breast) was > 100 µM, the TGI (T-47D breast) was > 100 µM and the GI50 (OVCAR-8 ovarian) was 2.44 µM. The TGI (OVCAR-8 ovarian) was 5.5 µM, the GI50 (SK-OV-3 ovarian) was 3.61 µM and the TGI (SK-OV-3 ovarian) was > 100 µM. The GI50 (SK-MEL-28 melanoma) was 6.75 µM, the TGI (SK-MEL-28 melanoma) was > 100 µM and the GI50 (MDA-MB-468 breast) was 2.28 µM. The TGI (MDA-MB-468 breast) was 6 µM, the GI50 (MDA-MB-435) was 3.2 µM and the TGI (MDA-MB-435) was > 100 µM. For the same compound, the GI50 (K-562 leukemia) was 3.28 µM, the TGI (K-562 leukemia) was > 100 µM and the GI50 (A549 NSCLC) was 3.66 µM. The TGI (A549 NSCLC) was > 100 µM, the GI50 (UACC-257 melanoma) was 5.79 µM and the TGI (UACC-257 melanoma) was > 100 µM. The GI50 (CAKI-1 renal) was 30.9 µM, the TGI (CAKI-1 renal) was > 100 µM and the GI50 (RXF 393 renal) was 2.65 µM. For the same compound, the TGI (RXF 393 renal) was 7.45 µM, the GI50 (BT-549 breast) was 2.16 µM and the TGI (BT-549 breast) was 6.28 µM. For the same compound, the GI50 (DU-145 prostate) was 4.2 µM and the TGI (DU-145 prostate) was > 100 µM.
